Assay results published in PMC10744269, “Frentizole, a Nontoxic Immunosuppressive Drug, and Its Analogs Display Antitumor Activity via Tubulin Inhibition” (International Journal of Molecular Sciences, 2023).

Assays:
[1] = system: HeLa (cervix epithelioid carcinoma cells); assay: MTT antiproliferative assay, HeLa; assay type: cell-based, human; details: Homo sapiens, HeLa, 72 h after drug treatment, threshold 10 μM
Protocol: (§1) The cell proliferation inhibitory activity of frentizole and the synthesized analogs 2–10 against representative human cancer cell lines was assayed using the MTT method (Table 1). […] For those compounds inhibiting cell proliferation by more than 40% with respect to the untreated controls at the threshold concentration, the IC50 values were calculated by measuring the proliferation inhibition in a range of concentrations from 100 to 0.001 μM and adjusting the resulting curves to sigmoidal dose–response curves. The selected cell lines were HeLa (cervix epithelioid carcinoma cells), one of the most frequent kinds of cancer, with good sensitivity against antimitotic agents, and the glioblastoma cell lines U87MG and A172. To study the selectivity of the compounds toward cancer cells versus nontumor cells, the compounds were also evaluated against the nontumorigenic cell line HEK-293 (human embryonic kidney cells) and the murine macrophage cell line J774. Sulfonamide ABT-751, as a representative of the colchicine-site ligands, and the first-line drug for the treatment of glioblastoma multiforme temozolomide (TMZ) were used as reference compounds.
(§2) The cell lines were from ATTC (Manassas, VA, USA). HeLa (human cervix epithelioid carcinoma), U87 MG (human glioblastoma), A172 (human glioblastoma), and HEK-293 (human embryonic kidney) were grown in Dulbecco’s modified Eagle’s medium (DMEM, Gibco, Waltham, MA, USA), supplemented with 10% (v/v) heat-inactivated fetal bovine serum (HIFBS, Sigma-Aldrich, St. Louis, MO, USA), 2 mM L-glutamine, 100 μg/mL streptomycin, and 100 units/mL penicillin (Gibco, Waltham, MA, USA) at 37 °C in humidified 95% air and 5% CO2. The cells were periodically tested for Mycoplasma infection using MycoAlert kit (Lonza, Norwest, Australia), and only mycoplasma-free cells were employed in the experiments.
(§3) The effect of the compounds on the proliferation of human tumor cell lines was determined as previously described using the MTT reagent 3-[4,5-dimethylthiazol-2-yl]-2,5-diphenyltetrazolium bromide, MTT Thiazolyl Blue Tetrazolium Bromide, Sigma-Aldrich, St. Louis, MO, USA) dissolved in PBS at 5 mg/mL, according to the manufacturer’s instructions. The cells were incubated in 96-well plates (100 μL/well), in complete DMEM or RPMI 1640 medium (see above), at 37 °C and 5% CO2 atmosphere for 24 h to allow for cell attachment to the plate at the following concentrations: 30,000 cells/mL (U87MG, A172, J774, and HEK-293 cells) or 15,000 cells/mL (HeLa cells). Then, every compound was added (10 μL/well) to a final concentration of 10 μM. Untreated cells were used as negative controls. The antiproliferative activity of the compounds was measured 72 h after drug exposure using the MTT assay. The IC50 value (the drug concentration required to inhibit 50% of the cell growth in respect the untreated control) was determined for those compounds showing antiproliferative effects in the initial screening at 10 μM. For this purpose, the compounds were used at different concentrations ranging from 10^−10 to […]. Measurements were performed in triplicate and each experiment was repeated three times. The IC50 values were determined using Origin software (OriginLab, Washington, DC, USA).

[2] = system: A172 (human glioblastoma); assay: MTT antiproliferative assay, A-172; assay type: cell-based; details: 72 h after drug treatment, threshold 10 μM
Protocol: as §1, §2, §3

[3] = system: U87 MG (human glioblastoma); assay: MTT antiproliferative assay, U-87 MG; assay type: cell-based; details: 72 h after drug treatment, threshold 10 μM
Protocol: as §1, §2, §3

[4] = system: nontumorigenic cell line HEK-293 (human embryonic kidney cells); assay: MTT antiproliferative assay, HEK-293; assay type: cell-based; details: HEK293, 72 h after drug treatment, threshold 10 μM
Protocol: as §1, §2, §3

[5] = system: murine macrophage cell line J774; assay: MTT antiproliferative assay, J774; assay type: cell-based; details: Mus musculus, 72 h after drug treatment, threshold 10 μM, read-out: IC50 J-774
Protocol: as §1, §3

SMILES	IC50 [1] [µM]	IC50 [2] [µM]	IC50 [3] [µM]	melting point [°C]	IC50 [4] [µM]	IC50 [5] [µM]
Cc1ccc2nc(NC(=O)c3ccccc3)sc2c1 [Compound 3a, N-(6-methylbenzo[d]thiazol-2-yl)benzamide]	> 10	> 10	> 10	222 to 224	> 10	> 10
Cc1cc2nc(NC(=O)c3ccccc3)sc2cc1C [Compound 3c, N-(5,6-dimethylbenzo[d]thiazol-2-yl)benzamide]	> 10	> 10	> 10	210	5.68	7.73
Cc1cc2nc(N(C)C(=O)c3ccccc3)sc2cc1C [Compound 3ca, N-(5,6-dimethylbenzo[d]thiazol-2-yl)-N-methylbenzamide]	> 10	> 10	> 10	231	> 10	> 10
COc1ccc2nc(NC(=O)c3ccccc3)sc2c1 [Compound 3e, N-(6-methoxybenzo[d]thiazol-2-yl)benzamide]	> 10	> 10	> 10	–	> 10	> 10
Cc1ccc2nc(NC(=O)Cc3ccccc3)sc2c1 [Compound 4a, N-(6-methylbenzo[d]thiazol-2-yl)-2-phenylacetamide]	> 10	> 10	> 10	190 to 191	> 10	> 10
CCNC(=O)Nc1nc2ccc(C)cc2s1 [Compound 5a, 1-Ethyl-3-(6-methylbenzo[d]thiazol-2-yl)urea]	> 10	> 10	> 10	312 to 313	> 10	> 10
CCNC(=O)Nc1nc2cc(C)c(C)cc2s1 [Compound 5c, 1-(5,6-Dimethylbenzo[d]thiazol-2-yl)-3-ethylurea]	> 10	> 10	> 10	–	> 10	> 10
CCNC(=O)Nc1nc2ccc(OC)cc2s1 [Compound 5e, 1-Ethyl-3-(6-methoxybenzo[d]thiazol-2-yl)urea]	> 10	> 10	> 10	–	> 10	> 10
Cc1ccc2nc(NC(=O)Oc3ccccc3)sc2c1 [Compound 9a, Phenyl (6-methylbenzo[d]thiazol-2-yl)carbamate]	> 10	> 10	> 10	251 to 253	> 10	> 10

The next lines start with results.

IC50 [1] [µM]	IC50 [2] [µM]	IC50 [3] [µM]	melting point [°C]	SMILES	IC50 [4] [µM]	IC50 [5] [µM]
> 10	> 10	> 10	327 to 329	Cc1ccc2nc(NC(=O)Nc3ccccc3)sc2c1 [Compound 6a, 1-(6-Methylbenzo[d]thiazol-2-yl)-3-phenylurea]	> 10	1.97
> 10	> 10	> 10	–	Cc1cc(Br)c2nc(NC(=O)Nc3ccccc3)sc2c1 [Compound 6b]	> 10	> 10
> 10	> 10	> 10	> 290	Cc1cc2nc(NC(=O)Nc3ccccc3)sc2cc1C [Compound 6c, 1-(5,6-Dimethylbenzo[d]thiazol-2-yl)-3-phenylurea]	> 10	0.27
> 10	> 10	> 10	179	Cc1cc2nc(N(C)C(=O)Nc3ccccc3)sc2cc1C [Compound 6ca, 1-(5,6-Dimethylbenzo[d]thiazol-2-yl)-1-methyl-3-phenylurea]	> 10	> 10
> 10	> 10	> 10	189	COc1ccc2nc(N(C)C(=O)Nc3ccccc3)sc2c1 [Compound 6ea, 1-(6-Methoxybenzo[d]thiazol-2-yl)-1-methyl-3-phenylurea]	> 10	> 10
> 10	> 10	> 10	283.4 to 285.7	Cc1ccc2nc(NC(=O)NCc3ccccc3)sc2c1 [Compound 7a, 1-Benzyl-3-(6-methylbenzo[d]thiazol-2-yl)urea]	> 10	> 10
> 10	> 10	> 10	–	Cc1cc(Br)c2nc(NC(=O)NCc3ccccc3)sc2c1 [Compound 7b, 1-Benzyl-3-(4-bromo-6-methylbenzo[d]thiazol-2-yl)urea]	> 10	> 10
> 10	> 10	> 10	252.8 to 254	CCOC(=O)Nc1nc2ccc(C)cc2s1 [Compound 8a, Ethyl (6-methylbenzo[d]thiazol-2-yl)carbamate]	> 10	0.26
> 10	> 10	> 10	177 to 178	CCOC(=O)Nc1nc2c(Br)cc(C)cc2s1 [Compound 8b, Ethyl (4-bromo-6-methylbenzo[d]thiazol-2-yl)carbamate]	> 10	> 10
–	–	–	100	Cc1cc(Br)c2c(c1)SC(NC(=O)Oc1ccccc1)N2C(=O)Oc1ccccc1 (stereo not drawn) [Compound 9b, Phenyl (4-bromo-6-methyl-N-phenoxycarbonylbenzo[d]thiazol-2-yl)carbamate]	–	–
> 10	> 10	> 10	254 to 255	Cc1ccc2nc(NC(=O)OCc3ccccc3)sc2c1 [Compound 10a, Benzyl (6-methylbenzo[d]thiazol-2-yl)carbamate]	> 10	–
> 10	> 10	> 10	–	Cc1cc(Br)c2nc(NC(=O)OCc3ccccc3)sc2c1 [Compound 10b]	> 10	> 10
